Test results taken from patent US5770407A, “Process for preparing nucleotide inhibitors of glycosyltransferases” (The Scripps Research Institute, priority 1996, dated 1998).
“Also recorded” adds a separate entry of the source. Where two headings read alike, the source gives them in different places.

Legend:
[1] = tested on: β 1,4-galactosyltransferase; details: previous observation, Wong 1992; Srivastava 1993; cited from earlier work
[2] = tested on: β 1,4-galactosyltransferase; experiment: Inhibition study of β-1,4-galactosyltransferase (UDP-[3H]Gal transfer to N-acetylglucosamine); format: biochemical, bovine milk; details: for mode of inhibition of β-1,4-galactosyltransferase: HEPES 100 mM, pH 7.4
Procedure: All assays contained 10 mM of MnCl2, 2 mM of UDP-[^3 H]Gal, 5 μL of 0.125 mg/mL galactosyltransferase, 0.5-4 mM of N-acetylglucosamine, 0-0.05 mM of 1, and 100 mM of HEPES buffer (pH 7.4) in a total assay volume of 0.05 mL. Assay was performed at 25° C. Reactions were halted with the addition of 0.3 mL of distilled, de-ionized water after 10 min. The reaction mixtures were passed through a pipette column (2 cm) of Sepadex QAE A-25 with 1 mL of distilled, de-ionized water. The obtained fractions were collected in 10 mL of ScintiVerse I scintillation cocktail. A control reaction without enzyme was used to establish the background, non-enzymatic cleavage rate. A typical control reaction of 41754 cpm UDP-[^3 H]Gal would result in 890 cpm of non-enzymatic column flow through.

[3] = molecular target: T1, FucT V (Homo sapiens, UniProt Q11128); experiment: Pre-incubation of GDP-2F-Fuc with FucT V (slow substrate / inactivator test); format: biochemical
T1 sequence (Q11128 1-374): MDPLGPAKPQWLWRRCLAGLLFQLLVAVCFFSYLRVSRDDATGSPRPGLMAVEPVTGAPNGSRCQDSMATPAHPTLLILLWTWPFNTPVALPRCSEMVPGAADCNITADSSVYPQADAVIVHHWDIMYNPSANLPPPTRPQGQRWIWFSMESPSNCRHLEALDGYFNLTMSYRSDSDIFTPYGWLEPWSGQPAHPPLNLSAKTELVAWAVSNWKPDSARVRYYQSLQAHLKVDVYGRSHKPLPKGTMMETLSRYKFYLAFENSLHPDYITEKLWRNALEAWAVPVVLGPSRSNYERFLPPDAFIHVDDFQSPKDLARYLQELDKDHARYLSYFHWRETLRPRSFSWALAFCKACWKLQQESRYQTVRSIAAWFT
Procedure: (§1) The interaction of GDP-2F-Fuc with FucT V was evaluated. The mode of inhibition of FucT V by GDP-2F-Fuc was evaluated by varying the GDP-Fuc concentrations at fixed GDP-2F-Fuc concentrations at a constant LacNAc-b-O--(CH2)5 CO2 CH3 concentration. […] Pre incubation of 0.010 mM GDP-2F-Fuc with the FucT V in the presence of LacNAc-b-O--(CH2)5 CO2 CH3 and MnCl2 was performed for 0-80 minutes. The reactions were initiated with GDP-Fuc and allowed to react for 30 minutes. The percent inhibition remained constant at 58% which is expected for reversible inhibition. If GDP-2F-Fuc was either an inactivator of a slow substrate, then the inhibition would either increase or decrease as a function of time.
A 0.350 mL solution that contained 10 mM MnCl2 , 2.1 munits FucT V, 0.30 mM LacNAc-b-O--(CH2)5 CO2 CH3, 0.010 mM GDP-2F-Fuc, and 100 mM MES (pH 6.0). This solution was subject to incubation at room temperature for various time periods (0, 3, 10, 20, 30, 60, 80 min). After the incubation time, a 0.050 mL aliquot was removed and GDP-[U-^14 C]-fucose was added to a final concentration of 0.050 mM to initiate the fucosyltransfer reaction. After a 30 minute reaction time period, the solution was passed through a Dowex 1 column and the amount of product determined.

[4] = molecular target: T2, α-1,3-fucosyltransferase V (Homo sapiens, UniProt Q11128); experiment: Inhibition of α-1,3-fucosyltransferase V (FucT V), GDP-Fuc varied at fixed inhibitor concentrations; format: biochemical; details: for mode of inhibition of FucT V: GDP-Fuc varied, constant LacNAc acceptor, listed as GDP-2F-Fuc
T2 construct: made in house
T2 sequence (Q11128 1-374): T1 sequence (Q11128 1-374)
Procedure: GDP-Fuc concentration was varied ([…]) and the acceptor sugar, LacNAc-b-O--(CH2)5 CO2 CH3, was kept at twice its km level, 0.6 mM. (Inset) A replot of the slopes as a function of GDP-2F-Fuc concentration is presented as a graphical Ki determination (Ki =x axis intercept).
as §1
Anhydrous pyridine was purchased from Aldrich and used without further purification. N-Acetyllactosamine, Dowex 1-X8, MES, pyruvate kinase, lactate dehydrogenase, PEP, GDP, NADH, guanosine 5'-monophospho-morpholidate 4-morpholine-N,N'-dicyclohexylcarboxamidine salt, GDP-Fuc, and cacodylic acid were purchased from Sigma. Guanosine 5'-diphospho-[U-^14 C]-b-L-fucose was purchased from Amersham Life Science. ScintiVerseI scintillation cocktail and MnCl2.4 H2 O were purchased from Fisher Scientific Company. Protein concentrations were determined with the Coomassie protein staining reagent with albumin standards as purchased from Pierce. The scintillation counter used was the Beckman LS 3801. Fluorescence was measured on a Hitachi F2000 Fluorescence Spectrophotometer. Human a-1,3-fucosyltransferase and LacNAc-b-O--(CH2)5 CO2 CH3 were prepared according to published procedures (Murray et al.(1996) Biochemistry 35, 11183-11195.).
GDP-Fuc concentration was varied ([…]) at fixed concentrations of GDP-2F-Fuc ([…]), and the acceptor sugar, LacNAc-b-O-(CH2)5 CO2 CH3, was kept at twice its Km level, 0.6 mM. Each assay contained 0.3 munit of FucT V and 10 mM MnCl2 in a 100 mM MES buffer (pH 6.0). Reactions were 30 minutes at room temperature.

[5] = tested on: β 1,4-galactosyltransferase; details: literature: Morrison, Ebner J. Biol. Chem. 1971; read-out: Km of GlcNAc (lit); cited from earlier work

Question: Which “substrate quality for the transferase” value [1] does the source give for `O=c1ccn([C@@H]2O[C@H](COP(=O)(O)OP(=O)(O)O[C@@H]3C[C@@H](O)[C@@H](O)[C@@H](CO)O3)[C@@H](O)[C@H]2O)c(=O)[nH]1` [2-deoxy derivative] here?
Answer: good substrate

Question: Which results are given for `O=c1ccn([C@@H]2O[C@H](COP(=O)(O)OP(=O)(O)O[C@H]3O[C@H](CO)[C@H](O)[C@H](O)[C@H]3F)[C@@H](O)[C@H]2O)c(=O)[nH]1` [Compound 1, Uridine 5'-diphospho-2-deoxy-2-fluoro-α-D-galactose]?
Answer: mode of inhibition of β-1,4-galactosyltransferase [2]: competitive inhibitor; mode of inhibition of β-1,4-galactosyltransferase ([2]; listed as UDP-2F-Gal, 1): potent competitive inhibitor; mode of inhibition of β-1,4-galactosyltransferase ([2]; listed as UDP-2FGal): competitive inhibitor; mode of inhibition of β-1,4-galactosyltransferase ([2]; listed as UDP-2FGal 1): competitive inhibition; Ki ([2]; competitive inhibition, UDP-Gal, GlcNAc, Mn2+ 10 mM, HEPES 100 mM pH 7.4, 25° C.): 41 µM

Question: What does the source list for `C[C@@H]1O[C@H](OP(=O)(O)OP(=O)(O)OC[C@H]2O[C@@H](n3cnc4c(=O)[nH]c(N)nc43)[C@H](O)[C@@H]2O)[C@@H](F)[C@H](O)[C@@H]1O` [Compound 21, Guanosine 5'-diphospho-2-deoxy-2-fluoro-β-L-fucose]?
Answer: percent inhibition after pre-incubation ([3]; 0.010 mM GDP-2F-Fuc, pre-incubation 0-80 minutes, 30 minutes reaction, remained constant): 58%; effect of pre-incubation on the potency of inhibition ([3]; incubation with FucT V and acceptor prior to GDP-Fuc): no effect; slow substrate or inactivator behaviour ([3]; pre-incubation with FucT V, acceptor and MnCl2 before GDP-Fuc, listed as GDP-2F-Fuc): not a slow substrate or an inactivator; also recorded: neither an inactivator nor a slow substrate; mode of inhibition of FucT V [4]: potent competitive inhibitor; also recorded: competitive inhibition pattern; mode of inhibition of FucT V [4]; 21: potent competitive inhibitor; relative potency as FucT V inhibitor ([4]; compared with inhibitors known to date): most potent inhibitor of this enzyme to date; Ki ([4]; α-1,3-fucosyltransferase V, summary and description): 4.2 µM

Question: Which Vmax ([2]; acceptor GlcNAc, HEPES pH 7.4) does the source give for `CC(=O)N[C@H]1C(O)O[C@H](CO)[C@@H](O)[C@@H]1O` (stereo partly shown) [GlcNAc, N-acetylglucosamine, reference compound] here?
Answer: 0.14 ± 0.01 µmol/min

Question: What about the Km ([2]; β 1,4-galactosyltransferase, HEPES pH 7.4, read-out: Km of GlcNAc) of the same compound?
Answer: 5.3 ± 0.5 mM

Question: What about the Km [5] of the same compound?
Answer: 6 mM
